From patent US20120202856A1, “SUBSTITUTED BENZIMDAZOLE DERIVATIVES USEFUL AS TRPM8 RECEPTOR MODULATORS” (priority 2011, published 2012) come the findings set out here.

“And” between values parts separate entries of the source, which are not always exact repeats. Equal values may be shown once. Where a name gives a salt, the structure may show the parent alone. Read-outs that look alike come from different tables or passages of the source.

A word on the IC50: it is the concentration needed to halve the response being measured.

Experiment [1] has as its system icilin-induced “wet-dog” shakes (WDS). Put plainly: Inhibition of Icilin-Induced “Wet-Dog” Shakes in Rats. The experiment is classed as in vivo, Sprague Dawley rats. To be noted: po; for inhibition in vivo at 3 mg/kg / inhibition in vivo at 10 mg/kg: read-out: Icilin % Inhibition @1.5 hrs. How it is done:
The test compound was administered in 10% hydroxypropyl-β-cyclodextrin (HP-13-CD), p.o., 60 min before icilin.
% Inhibition=[1−(test compound WDS count/vehicle WDS count)]×100.

The target in experiment [2] is T1, canine TRPM8 (Canis lupus familiaris, UniProt Q1A7N1).
T1 construct: expressed in transfected cells
T1 sequence (Q1A7N1 1-1104): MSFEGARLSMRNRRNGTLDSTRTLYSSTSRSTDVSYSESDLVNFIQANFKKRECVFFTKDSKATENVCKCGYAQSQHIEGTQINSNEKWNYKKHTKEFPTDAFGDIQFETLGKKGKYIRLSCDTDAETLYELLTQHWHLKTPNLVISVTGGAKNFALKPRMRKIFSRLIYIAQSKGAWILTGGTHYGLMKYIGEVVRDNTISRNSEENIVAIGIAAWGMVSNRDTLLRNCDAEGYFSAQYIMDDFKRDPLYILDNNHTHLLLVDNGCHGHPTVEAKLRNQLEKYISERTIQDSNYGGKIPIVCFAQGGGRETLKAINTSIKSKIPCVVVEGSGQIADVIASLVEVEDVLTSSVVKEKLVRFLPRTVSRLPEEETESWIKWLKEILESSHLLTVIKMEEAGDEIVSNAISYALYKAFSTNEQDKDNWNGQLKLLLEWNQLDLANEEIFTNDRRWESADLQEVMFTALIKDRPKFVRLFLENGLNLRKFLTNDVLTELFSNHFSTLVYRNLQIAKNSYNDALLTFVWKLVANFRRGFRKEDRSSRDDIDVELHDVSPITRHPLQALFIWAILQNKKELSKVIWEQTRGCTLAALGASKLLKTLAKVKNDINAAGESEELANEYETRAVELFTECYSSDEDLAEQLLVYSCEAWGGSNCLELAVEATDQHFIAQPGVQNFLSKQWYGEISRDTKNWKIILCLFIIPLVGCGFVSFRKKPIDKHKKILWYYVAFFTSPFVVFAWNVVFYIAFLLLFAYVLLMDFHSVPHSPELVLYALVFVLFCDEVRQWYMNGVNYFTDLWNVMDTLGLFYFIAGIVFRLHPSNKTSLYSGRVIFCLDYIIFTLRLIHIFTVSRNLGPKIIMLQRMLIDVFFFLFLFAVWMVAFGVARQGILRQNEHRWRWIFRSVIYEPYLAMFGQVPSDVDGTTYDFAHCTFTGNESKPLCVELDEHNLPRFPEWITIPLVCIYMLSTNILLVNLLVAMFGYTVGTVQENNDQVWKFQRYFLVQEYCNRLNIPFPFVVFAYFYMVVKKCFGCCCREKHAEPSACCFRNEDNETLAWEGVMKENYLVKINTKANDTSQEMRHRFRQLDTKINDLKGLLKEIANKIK
Briefly: In Vitro Canine TRPM8 Functional Assay (intracellular Ca2+ fluorescence, icilin activation, HEK293 cells). To be noted: for inhibition at 0.2 µM / % Inh (%) @0.2 μM, in vitro TRP M8 Activity: individually measured values; for IC50: HEK293 cells expressing canine TRPM8, icilin activation, individually measured values (batches/salt forms), read-out: IC50 (nM), in vitro TRP M8 Activity; for % Inh (%) @0.2 μM, in vitro TRP M8 Activity: 0.2 μM test compound. The experiment is classed as cell-based. In a few lines: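 Inhibition of icilin-evoked calcium influx measured by Calcium 3 fluorescence (FLIPR or FDSS) in canine TRPM8 HEK293 cells. After basal subtraction, data expressed as percent of maximum; quadruplicate means fitted by sigmoidal dose–response to give IC50.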

Where [3] appears, read: rat, p.o., dose 3 mg/kg, 1.5 hrs.
[4] abbreviates: HEK293, 0.2 μM test compound, read-out: % Inh (%) @0.2 μM, in vitro TRP M8 Activity.
[5] abbreviates: rat, p.o., dose 10 mg/kg, 1.5 hrs.

As for `Cn1nc(C(C)(C)C)c(Cl)c1-c1nc2cc(-c3c(F)cccc3OC(F)(F)F)cc(Cl)c2[nH]1` [Compound 130, 2-(5-tert-Butyl-4-chloro-2-methyl-2H-pyrazol-3-yl)-7-chloro-5-(2-fluoro-6-trifluoromethoxy-phenyl)-1H-benzimidazole hydrochloride], in experiment [1] (setting [3]), the inhibition in vivo at 3 mg/kg is 22.7%. Also, the inhibition at 0.2 µM in experiment [2] (setting [4]) was determined as 100%. Also, the 50% inhibitory concentration (IC50) in experiment [2] is 10.7 nM and 5.3 nM.

For the compound `Cn1nc(C(C)(C)C)cc1-c1nc2cc(-c3c(F)cccc3F)ccc2[nH]1` [Compound 58, 2-(5-tert-Butyl-2-methyl-2H-pyrazol-3-yl)-5-(2,6-difluoro-phenyl)-1H-benzimidazole trifluoroacetic acid salt], the inhibition in vivo at 5.6 mg/kg in experiment [1] (rat, dose 5.6 mg/kg, 1.5 hrs) turned out to be 11.2%. The IC50 in experiment [2] is 14 nM and 17.3 nM.

Turning to `Cn1nc(C(C)(C)C)c(Cl)c1-c1nc2cc(-c3ccccc3Cl)cc(Cl)c2[nH]1.[Na]` [Compound 115, 2-(5-tert-Butyl-4-chloro-2-methyl-2H-pyrazol-3-yl)-7-chloro-5-(2-chloro-phenyl)-1H-benzimidazole sodium salt], in experiment [1] (setting [3]), the inhibition in vivo at 3 mg/kg turned out to be 45%. Besides, in experiment [2], the “% Inh (%) @0.2 μM, in vitro TRP M8 Activity” value (shortened to “% Inh (%) @0.2 μM”) is 100, 100%; the IC50 was 2.2 nM and 5.6 nM and 4.9 nM. For the same compound, in experiment [2] (setting [4]), the inhibition at 0.2 µM turned out to be 100%.

As for `Cc1c(C(C)(C)C)nn(C)c1-c1nc2cc(-c3c(F)cccc3F)cc(Cl)c2[nH]1` [Compound 136, 2-(5-tert-Butyl-2,4-dimethyl-2H-pyrazol-3-yl)-7-chloro-5-(2,6-difluoro-phenyl)-1H-benzimidazole hydrochloride], in experiment [1] (setting [3]), the inhibition in vivo at 3 mg/kg stood at 61.6%. The inhibition at 0.2 µM in experiment [2] (setting [4]) came out at 100%. For the same compound, in experiment [2], the IC50 is 8.2 nM and 9 nM.

In turn, `CC(C)c1cc(-c2nc3cc(-c4ccccc4C(F)(F)F)ccc3[nH]2)on1` [Compound 3, 2-(3-Isopropylisoxazol-5-yl)-5-(2-trifluoromethylphenyl)-1H-benzimidazole sodium salt] had an inhibition in vivo at 30 mg/kg in experiment [1] (rat, dose 30 mg/kg, 1.5 hrs) of 48.3%. For the same compound, the IC50 in experiment [2] was 22 nM and 24 nM (2×) and 29 nM.

On to `Cn1nc(C(C)(C)C)c(C#N)c1-c1nc2cc(-c3ccccc3C(F)(F)F)cc(Cl)c2[nH]1` [Compound 169, 3-tert-Butyl-5-[7-chloro-5-(2-trifluoromethyl-phenyl)-1H-benzimidazol-2-yl]-1-methyl-1H-pyrazole-4-carbonitrile sodium salt], for which, in experiment [1] (setting [3]), the inhibition in vivo at 3 mg/kg came to 34%. Further, in experiment [2] (setting [4]), the inhibition at 0.2 µM was 100%. Besides, the IC50 in experiment [2] turned out to be 8 nM.

Regarding `Cl.Cn1nc(C(C)(C)C)c(Cl)c1-c1nc2cc(-c3c(F)cccc3F)cc(Cl)c2[nH]1` [Compound 112, 2-(5-tert-Butyl-4-chloro-2-methyl-2H-pyrazol-3-yl)-7-chloro-5-(2,6-difluoro-phenyl)-1H-benzimidazole hydrochloride], the inhibition in vivo at 3 mg/kg in experiment [1] (setting [3]) is 21.2%. For the same compound, in experiment [2], the “% Inh (%) @0.2 μM” value was 99, 99%; the IC50 was 5.6 nM and 3.5 nM and 5.9 nM. For the same compound, the inhibition at 0.2 µM in experiment [2] (setting [4]) came to 99%.

For the compound `Cn1nc(C(C)(C)C)c(Cl)c1-c1nc2cc(-c3c(F)cccc3C(F)(F)F)cc(Cl)c2[nH]1.[Na]` [Compound 113, 2-(5-tert-Butyl-4-chloro-2-methyl-2H-pyrazol-3-yl)-7-chloro-5-(2-fluoro-6-trifluoromethyl-phenyl)-1H-benzimidazole sodium salt], the inhibition in vivo at 3 mg/kg in experiment [1] (Rattus norvegicus, 1.5 h) was 2.8%. The “% Inh (%) @0.2 μM” value in experiment [2] (sodium salt, 0.2 µM) is given as 100%. Besides, in experiment [2] (HEK293, read-out: % Inh (%) @0.2 μM, in vitro TRP M8 Activity, 0.2 μM test compound), the inhibition at 0.2 µM came to 99%. Further, in experiment [2], the half-maximal inhibitory concentration (IC50) was 2.4 nM and 3.5 nM and 4.4 nM.

Consider `Cn1nc(C(C)(C)C)c(Cl)c1-c1nc2cc(-c3ccccc3C(F)(F)F)ccc2[nH]1` [Compound 50, 2-(5-tert-Butyl-4-chloro-2-methyl-2H-pyrazol-3-yl)-5-(2-trifluoromethylphenyl)-1H-benzimidazole sodium salt], for which the inhibition in vivo at 10 mg/kg in experiment [1] (setting [5]) turned out to be 47.4%. The IC50 in experiment [2] was 14 nM and 8.2 nM and 2.2 nM.

As for `Cn1nc(C(C)(C)C)cc1-c1nc2cc(-c3c(F)cccc3C(F)(F)F)ccc2[nH]1` [Compound 61, 2-(5-tert-Butyl-2-methyl-2H-pyrazol-3-yl)-5-(2-fluoro-6-trifluoromethylphenyl)-1H-benzimidazole sodium salt], in experiment [1] (Rattus norvegicus, 1.5 h), the inhibition in vivo at 10 mg/kg turned out to be 38.8%. Further, in experiment [2], the IC50 was 7.8 nM and 10 nM.

As to `Cn1nc(C(C)(C)C)c(Cl)c1-c1nc2cc(-c3c(F)cccc3C(F)(F)F)ccc2[nH]1` [Compound 86, 2-(5-tert-Butyl-4-chloro-2-methyl-2H-pyrazol-3-yl)-5-(2-fluoro-6-trifluoromethyl-phenyl)-1H-benzimidazole hydrochloride], in experiment [1] (setting [5]), the inhibition in vivo at 10 mg/kg came out at 98.7%. Further, in experiment [2], the IC50 was 3.1 nM and 7.7 nM.

Take `Cc1c(C(C)(C)C)nn(C)c1-c1nc2cc(-c3ccccc3C(F)(F)F)cc(C(F)(F)F)c2[nH]1` [Compound 120, 2-(5-tert-Butyl-2,4-dimethyl-2H-pyrazol-3-yl)-7-trifluoromethyl-5-(2-trifluoromethyl-phenyl)-1H-benzimidazole hydrochloride]: the inhibition in vivo at 3 mg/kg in experiment [1] (setting [3]) came to 44.8%. In experiment [2], the IC50 came to 2.1 nM.

On to `CCn1nc(C(C)(C)C)cc1-c1nc2cc(-c3ccccc3C(F)(F)F)ccc2[nH]1` [Compound 44, 2-(5-tert-Butyl-2-ethyl-2H-pyrazol-3-yl)-5-(2-trifluoromethylphenyl)-1H-benzimidazole sodium salt], for which the inhibition in vivo at 10 mg/kg in experiment [1] (Rattus norvegicus, 1.5 h) was 30%. Further, the IC50 in experiment [2] is 15.8 nM.

`Cc1c(C(C)(C)C)nn(C)c1-c1nc2cc(-c3c(F)cccc3C(F)(F)F)ccc2[nH]1` [Compound 78, 2-(5-tert-Butyl-2,4-dimethyl-2H-pyrazol-3-yl)-5-(2-fluoro-6-trifluoromethyl-phenyl)-1H-benzimidazole sodium salt]: in experiment [1] (Rattus norvegicus, 1.5 h), the inhibition in vivo at 10 mg/kg worked out at 99.3%. Further, in experiment [2], the IC50 amounted to 1 nM.

As for `Cn1nc(C(C)(C)C)c(Cl)c1-c1nc2cc(-c3ccccc3Cl)ccc2[nH]1` [Compound 89, 2-(5-tert-Butyl-4-chloro-2-methyl-2H-pyrazol-3-yl)-5-(2-chloro-phenyl)-1H-benzimidazole hydrochloride], the inhibition in vivo at 10 mg/kg in experiment [1] (setting [5]) is 91.5%. Further, the IC50 in experiment [2] is 3.6 nM and 5.2 nM and 2.4 nM.

For `Cl.Cn1nc(C(C)(C)C)c(Cl)c1-c1nc2cc(-c3ccccc3OC(F)(F)F)cc(Cl)c2[nH]1` [Compound 117, 2-(5-tert-Butyl-4-chloro-2-methyl-2H-pyrazol-3-yl)-7-chloro-5-(2-trifluoromethoxy-phenyl)-1H-benzimidazole hydrochloride], the inhibition in vivo at 3 mg/kg in experiment [1] (setting [3]) turned out to be 7.7%. For the same compound, in experiment [2], the “% Inh (%) @0.2 μM” value was 100, 100%; the IC50 was 7 nM and 11.3 nM and 8.4 nM. Also, the inhibition at 0.2 µM in experiment [2] (setting [4]) is 100%.

On to `CC(C)(C)c1cc(-c2nc3cc(-c4ccccc4C(F)(F)F)ccc3[nH]2)on1` [Compound 9, 2-(3-tert-Butylisoxazol-5-yl)-5-(2-trifluoromethylphenyl)-1H-benzimidazole sodium salt], for which the inhibition in vivo at 10 mg/kg in experiment [1] (setting [5]) was 66.4%. For the same compound, in experiment [2], the IC50 was 17.4 nM and 12 nM.

`Cn1nc(C(C)(C)C)c(C#N)c1-c1nc2cc(-c3ccccc3OC(F)(F)F)cc(Cl)c2[nH]1` [Compound 170, 3-tert-Butyl-5-[7-chloro-5-(2-trifluoromethoxy-phenyl)-1H-benzimidazol-2-yl]-1-methyl-1H-pyrazole-4-carbonitrile sodium salt]: the inhibition in vivo at 3 mg/kg in experiment [1] (setting [3]) came out at 4.3%. Besides, the inhibition at 0.2 µM in experiment [2] (setting [4]) came out at 100%. Moreover, the IC50 in experiment [2] came out at 12.4 nM.

As for `Cc1c(C(C)(C)C)nn(C)c1-c1nc2cc(-c3c(F)cccc3OC(F)(F)F)cc(Cl)c2[nH]1` [Compound 138, 2-(5-tert-Butyl-2,4-dimethyl-2H-pyrazol-3-yl)-7-chloro-5-(2-fluoro-6-trifluoromethoxy-phenyl)-1H-benzimidazole hydrochloride], the inhibition at 0.2 µM in experiment [2] (setting [4]) came to 99%. Moreover, the IC50 in experiment [2] is 7.7 nM and 6.8 nM.

Regarding `Cn1nc(C(F)(F)F)cc1-c1nc2cc(-c3ccccc3OC(F)(F)F)ccc2[nH]1` [Compound 41, 2-(5-Trifluoromethyl-2-methyl-2H-pyrazol-3-yl)-5-(2-trifluoromethoxyphenyl)-1H-benzimidazole sodium salt], the IC50 in experiment [2] amounted to 133 nM.

For the compound `Cn1nc(C2CCC2)cc1-c1nc2cc(-c3ccccc3OC(F)(F)F)ccc2[nH]1` [Compound 38, 2-(5-Cyclobutyl-2-methyl-2H-pyrazol-3-yl)-5-(2-trifluoromethoxy-phenyl)-1H-benzimidazole sodium salt], in experiment [2], the IC50 was 55.8 nM.

Turning to `Cc1c(C(C)(C)C)noc1-c1nc2cc(-c3ccccc3F)ccc2[nH]1` [Compound 106, 2-(3-tert-Butyl-4-methyl-isoxazol-5-yl)-5-(2-fluoro-phenyl)-1H-benzimidazole hydrochloride], the IC50 in experiment [2] came to 21.8 nM.

For the compound `Cn1nc(C(C)(C)C)c(Cl)c1-c1nc2cc(-c3c(F)cccc3OC(F)(F)F)ccc2[nH]1` [Compound 88, 2-(5-tert-Butyl-4-chloro-2-methyl-2H-pyrazol-3-yl)-5-(2-fluoro-6-trifluoromethoxy-phenyl)-1H-benzimidazole hydrochloride], the 50% inhibitory concentration (IC50) in experiment [2] was 3.6 nM and 9.7 nM.

With `Cn1nc(C2(C)CC2)cc1-c1nc2cc(-c3ccccc3OC(F)(F)F)ccc2[nH]1` [Compound 53, 2-[2-Methyl-5-(1-methylcyclopropyl)-2H-pyrazol-3-yl]-5-(2-trifluoromethoxyphenyl)-1H-benzimidazole sodium salt], the IC50 in experiment [2] amounted to 41.7 nM.
